We go through 25 compounds from patent publication US10174037B2, “Dihydropyrazolopyrimidinone compounds as PDE2 inhibitors” (Merck Sharp & Dohme Corp., priority 2015, dated 2019).

For the test, the target named is human PDE2A1 (Homo sapiens (Human), UniProt O00408). Kind of test: PDE selectivity IMAP FP assay, human PDE2A1. The format is biochemical. The conditions noted are these: Human PDE2; Lab B; read-out: Human PDE2 Ki (nM) Lab B. As to the method:
Selectivity for PDE2, as compared to other PDE families, was assessed using the IMAP® technology. Human PDE10A2 enzyme was prepared from cytosolic fractions of transiently transfected HEK cells.
A Labcyte POD 810 (Labcyte, Sunnyvale, Calif.) was used to dispense 200 nL from each well of the titration plate to make eleven copies of the assay plate for each titration, one copy for each PDE enzyme. A solution of each enzyme (dilution from aliquots, sufficient to produce 20% substrate conversion) and a separate solution of FAM-labeled cAMP or FAM-labeled cGMP from Molecular Devices (Sunnyvale, Calif., product # R7506 or cGMP#R7508), at a final concentration of 50 nM were made in the assay buffer (10 mM Tris HCl, pH 7.2, 10 mM MgCl2, 0.05% NaN3 0.01% Tween-20, and 1 mM DTT). Note that the substrate for PDE2 is 50 nM FAM cAMP containing 1000 nM of cGMP. The enzyme and the substrate were then added to the assay plates in two consecutive additions of 10 μL and then shaken to mix. The reaction was allowed to proceed at room temperature for 60 minutes. A binding solution was then made from the kit components, comprised of 80% Solution A, 20% Solution B and binding reagent at a volume of 1/600 the total binding solution. The enzymatic reaction was stopped by addition of 60 μL of the binding solution to each well of the assay plate. […] The plates were incubated at room temperature for one hour, then the parallel and perpendicular fluorescence was measured using a Tecan Genios Pro plate reader (Tecan, Switzerland). […] The intrinsic PDE2 inhibitory activity of a compound which may be used in accordance with the present invention may be determined by these assays. […]
The PDE2 Ki is a measure of the ability of the test compound to inhibit the action of the PDE2 enzyme.

Chain of human PDE2A1 (O00408 other isoform, or with tags, fused parts or gaps): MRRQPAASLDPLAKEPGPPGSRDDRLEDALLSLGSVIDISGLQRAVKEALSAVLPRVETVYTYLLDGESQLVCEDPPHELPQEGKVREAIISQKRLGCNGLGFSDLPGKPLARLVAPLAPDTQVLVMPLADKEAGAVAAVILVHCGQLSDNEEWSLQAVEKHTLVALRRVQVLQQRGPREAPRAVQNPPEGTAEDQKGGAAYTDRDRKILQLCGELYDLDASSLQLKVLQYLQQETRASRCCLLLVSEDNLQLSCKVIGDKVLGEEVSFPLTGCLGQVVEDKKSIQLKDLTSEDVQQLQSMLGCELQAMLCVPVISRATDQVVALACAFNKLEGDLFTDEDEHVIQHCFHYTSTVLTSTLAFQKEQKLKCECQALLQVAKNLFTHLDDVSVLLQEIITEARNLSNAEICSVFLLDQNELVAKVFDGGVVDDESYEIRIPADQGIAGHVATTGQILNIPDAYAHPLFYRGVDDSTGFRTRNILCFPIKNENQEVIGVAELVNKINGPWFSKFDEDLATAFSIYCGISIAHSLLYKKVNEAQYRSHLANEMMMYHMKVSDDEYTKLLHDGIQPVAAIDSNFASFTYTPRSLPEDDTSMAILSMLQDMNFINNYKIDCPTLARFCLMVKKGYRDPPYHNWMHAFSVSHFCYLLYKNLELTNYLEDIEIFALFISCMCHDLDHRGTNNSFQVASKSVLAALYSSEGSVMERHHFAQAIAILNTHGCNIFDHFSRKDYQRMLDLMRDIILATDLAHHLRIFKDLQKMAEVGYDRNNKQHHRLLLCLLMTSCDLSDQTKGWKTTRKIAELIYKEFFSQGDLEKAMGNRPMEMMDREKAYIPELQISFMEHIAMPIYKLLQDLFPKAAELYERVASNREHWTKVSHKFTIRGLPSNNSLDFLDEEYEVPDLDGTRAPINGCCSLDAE

By Ki is commonly meant a dissociation constant, usually derived from enzyme kinetics or from competition with a known ligand. With `CC[C@@H](O)c1nn([C@@H](C)c2ccc(C(F)(F)F)cc2)c2nc(O)[nH]c(=O)c12` (mixture of isomers) [Example 294, (R,S)- and (R,R)- and (S,S)- and (S,R)-6-Hydroxy-3-(1-hydroxypropyl)-1-(1-(4-(trifluoromethyl)phenyl)ethyl)-1H-pyrazolo[3,4-d]pyrimidin-4(5H)-one], the Ki stood at 105 nM.

Turning to `CC[C@@H](O)c1nn([C@@H](C)c2ccc(C(F)(F)F)cc2)c2nc(O)[nH]c(=O)c12` (mixture of isomers) [Example 295, (R,S)- and (R,R)- and (S,S)- and (S,R)-6-Hydroxy-3-(1-hydroxypropyl)-1-(1-(4-(trifluoromethyl)phenyl)ethyl)-1H-pyrazolo[3,4-d]pyrimidin-4(5H)-one], the Ki was determined as 168 nM.

Consider `CC1(C(c2ccc(C(F)(F)F)cc2)n2nc(CO)c3c(=O)[nH]c(O)nc32)CC1` (single isomer, unassigned) [Example 4], for which the Ki was determined as 342 nM.

On to `CC1(C(c2ccc(C(F)(F)F)c(F)c2)n2nc(CO)c3c(=O)[nH]c(O)nc32)CC1` (single isomer, unassigned) [Example 16], for which the inhibition constant Ki turned out to be 702 nM.

For `CC1(C(c2ccc(C(F)(F)F)c(F)c2)n2nc(CO)c3c(=O)[nH]c(O)nc32)CC1` (single isomer, unassigned) [Example 17], the Ki was 55 nM.

`CC(c1ccc(C(F)(F)C(F)(F)F)cc1)n1nc(CO)c2c(=O)[nH]c(O)nc21` (single isomer, unassigned) [Example 31, (R)- or (S)-6-Hydroxy-3-(hydroxymethyl)-1-(1-(4-(perfluoroethyl)phenyl)ethyl)-1H-pyrazolo[3,4-d]pyrimidin-4(5H)-one]: the inhibition constant (Ki) stood at 50 nM.

Take `CC(c1ccc(C(F)(F)C(F)(F)F)cc1)n1nc(CO)c2c(=O)[nH]c(O)nc21` (single isomer, unassigned) [Example 32, (S)- or (R)-6-Hydroxv-3-(hydroxymethyl)-1-(1-(4-(perfluoroethyl)phenyl)ethyl)-1H-pyrazolo[3,4-d]pyrimidin-4(5H)-one]: the inhibitory constant (Ki) was about 1900 nM.

On to `CN(C)c1nc2c(c(CO)nn2C(c2ccc(C(F)F)cc2)C2CC2)c(=O)[nH]1` (single isomer, unassigned) [Example 63], for which the Ki stood at 3.2 nM.

Consider `CC(c1ccc(C(C)(C)C)cc1)n1nc(CO)c2c(=O)[nH]c(N(C)C)nc21` (single isomer, unassigned) [Example 67, (S)- or (R)-1-(1-(4-tert-Butylphenyl)ethyl)-6-(dimethylamino)-3-(hydroxymethyl)-1H-pyrazolo[3,4-d]pyrimidin-4(5H)-one], for which the Ki amounted to 0.25 nM.

As to `CC(c1ccc(CC(F)(F)F)cc1)n1nc(CO)c2c(=O)[nH]c(N(C)C)nc21` (single isomer, unassigned) [Example 70, (R)- or (S)-6-(Dimethylamino)-3-(hydroxymethyl)-1-(1-(4-(2,2,2-trifluoroethyl)phenyl)ethyl)-1H-pvrazolo[3,4-d]pyrimidin-4(5H)-one], the Ki was 4.1 nM.

Regarding `CCC(c1ccc(C(F)(F)F)cc1)n1nc(CO)c2c(=O)[nH]c(N(C)C)nc21` (single isomer, unassigned) [Example 72, (R)- or (S)-6-(Dimethylamino)-3-(hydroxymethyl)-1-(1-(4-(trifluoromethyl)phenyl)propyl)-1H-pyrazolo[3,4-d]pyrimidin-4(5H)-one], the Ki was found to be 2.9 nM.

Take `CC(c1ccc(C(F)(F)F)cc1F)n1nc(CO)c2c(=O)[nH]c(N(C)C)nc21` (single isomer, unassigned) [Example 80, (R)- or (S)-6-(Dimethylamino)-1-(1-(2-fluoro-4-(trifluoromethyl)phenyl)ethyl)-3-(hydroxymethyl)-1H-pyrazolo[3,4-d]pyrimidin-4(5H)-one]: the Ki came to 25 nM.

For `CC(c1ccc(C(F)F)cc1)n1nc(CO)c2c(=O)[nH]c(N(C)C)nc21` (single isomer, unassigned) [Example 82, (R)- or (S)-1-(1-(4-(Difluoromethyl)phenyl)ethyl)-6-(dimethylarnino)-3-(hydroxymethyl)-1H-pyrazolo[3,4-d]pyrimidin-4(5H)-one], the Ki worked out at 35 nM.

Turning to `CC(C)C(c1ccc(CC(F)(F)F)cc1)n1nc(CO)c2c(=O)[nH]c(N(C)C)nc21` (single isomer, unassigned) [Example 89, (S)- or (R)-6-(Dimethylamino)-3-(hydroxymethyl)-1-(2-methyl-1-(4-(2,2,2-trifluoroethyl)phenyl)propyl)-1H-pyrazolo[3,4-d]pyrimidin-4(5H)-one], the Ki came out at 0.21 nM.

Turning to `CCC(c1ccc(C(F)F)cc1)n1nc(CO)c2c(=O)[nH]c(N(C)C)nc21` (single isomer, unassigned) [Example 92, (R)- or (S)-1-(1-(4-(Difluoromethyl)phenyl)propyl)-6-(dimethylamino)-3-(hydroxymethyl)-1H-pyrazolo[3,4-d]pyrimidin-4(5H)-one], the Ki amounted to 8.4 nM.

As to `CCC(c1ccc(CC(F)(F)F)cc1)n1nc(CO)c2c(=O)[nH]c(N(C)C)nc21` (single isomer, unassigned) [Example 98, (R)- or (S)-6-(Dimethylamino)-3-(hydroxymethyl)-1-(1-(4-(2,2,2-trifluoroethyl)phenyl)propyl)-1H-pyrazolo[3,4-d]pyrimidin-4(5H)-one], the Ki was found to be 1.3 nM.

Consider `CCC(c1ccc(CC(F)(F)F)cc1)n1nc(CO)c2c(=O)[nH]c(N(C)C)nc21` (single isomer, unassigned) [Example 99, (S)- or (R)-6-(Dimethyiamino)-3-(hydroxymethyl)-1-(1-(4-(2,2,2-trifluoroethyl)phenyl)propyl)-1H-pyrazolo[3,4-d]pyrimidin-4(5H)-one], for which the Ki was 0.31 nM.

With `CC(c1ccc(C(C)(F)F)cc1)n1nc(CO)c2c(=O)[nH]c(N(C)C)nc21` (single isomer, unassigned) [Example 102, (R)- or (S)-1-(1-(4-(1,1-Difluoroethyl)phenyl)ethyl)-6-(dimethylamino)-3-(hydroxymethyl)-1H-pyrazolo[3,4-d]pyrimidin-4(5H)-one], the inhibition constant Ki turned out to be 9.9 nM.

Take `CC(c1ccc(C(F)F)c(F)c1)n1nc(CO)c2c(=O)[nH]c(N(C)C)nc21` (single isomer, unassigned) [Example 104, (R)- or (S)-1-(1-(4-(Difluoromethyl)-3-fluorophenyl)ethyl)-6-(dimethylamino)-3-(hydroxymethyl)-1H-pyrazolo[3,4-d]pyrimidin-4(5H)-one]: the Ki came to 40 nM.

Turning to `CC(c1ccc(C(C)(F)F)cc1F)n1nc(CO)c2c(=O)[nH]c(N(C)C)nc21` (single isomer, unassigned) [Example 109, (S)- or (R)-1-(1-(4-(1,1-Difluoroethyl)-2-fluorophenyl)ethyl)-6-(dimethylamino)-3-(hydroxymethyl)-1H-pyrazolo[3,4-d]pyrimidin-4(5H)-one], the Ki was found to be 8 nM.

With `CCC(c1ccc(C(C)(F)F)cc1F)n1nc(CO)c2c(=O)[nH]c(N(C)C)nc21` (single isomer, unassigned) [Example 110, (R)- or (S)-1-(1-(4-(1,1-Difluoroethyl)-2-fluorophenyl)propyl)-6-(dimethylamino)-3-(hydroxymethyl)-1H-pyrazolo[3,4-d]pyrimidin-4(5H)-one], the Ki is 2.8 nM.

With `CC(C)C(c1ccc(C(F)F)c(F)c1)n1nc(CO)c2c(=O)[nH]c(N(C)C)nc21` (single isomer, unassigned) [Example 115, (R)- or (S)-1-(1-(4-(Difluoromethyl)-3-fluorophenyl)-2-methylpropyl)-6-(dimethylamino)-3-(hydroxymethyl)-1H-pyrazolo[3,4-d]pyrimidin-4(5H)-one], the Ki was 0.21 nM.

On to `CCC(c1ccc(OC(F)F)cc1)n1nc(CO)c2c(=O)[nH]c(N(C)C)nc21` (single isomer, unassigned) [Example 125, (S)- or (R)-1-(1-(4-(Difluoromethoxy)phenyl)propyl)-6-(dimethylamino)-3-(hydroxymethyl)-1H-pyrazolo[3,4-d]pyrimidin-4(5H)-one], for which the Ki stood at 2.4 nM.

With `CCC(c1ccc(C(F)(F)F)cc1F)n1nc(CO)c2c(=O)[nH]c(N(C)C)nc21` (single isomer, unassigned) [Example 131, (S)- or (R)-6-(Dimethylamino)-1-(1-(2-fluoro-4-(trifluoromethyl)phenyl)propyl)-3-(hydroxymethyl)-1H-pyrazolo[3,4-d]pyrimidin-4(5H)-one], the Ki was found to be 3.9 nM.

On to `CCC(c1ccc(C(C)(F)F)cc1)n1nc(CO)c2c(=O)[nH]c(N(C)C)nc21` (single isomer, unassigned) [Example 136, (R)- or (S)-1-(1-(4-(1,1-Difluoroethyl)phenyl)propyl)-6-(dimethylamino)-3-(hydroxymethyl)-1H-pyrazolo[3,4-d]pyrimidin-4(5H)-one], for which the Ki is 1.9 nM.
